Results on ten compounds are retold here after ChEMBL document CHEMBL1201862, “PubChem BioAssay data set” (2004).

Activity calls are given as the source filed them.

The target of experiment [1] is T1, Carboxy-terminal domain RNA polymerase II polypeptide A small phosphatase 1 (Homo sapiens, UniProt Q9GZU7).
T1 sequence (Q9GZU7 whole entry): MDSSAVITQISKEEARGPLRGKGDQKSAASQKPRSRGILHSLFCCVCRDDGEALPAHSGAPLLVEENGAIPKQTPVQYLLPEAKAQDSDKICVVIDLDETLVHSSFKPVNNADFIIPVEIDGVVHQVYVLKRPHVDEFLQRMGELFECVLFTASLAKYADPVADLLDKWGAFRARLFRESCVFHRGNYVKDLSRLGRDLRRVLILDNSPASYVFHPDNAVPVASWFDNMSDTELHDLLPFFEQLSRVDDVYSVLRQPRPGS
Briefly: CTDSP1 inhibitors, concentration-response, biochemical, absorbance readout, ultra-high-throughput screen actives (AID 540297). It counts as functional.

Experiment [2] is described as follows: decrease of insulin promoter-GFP reporter – imaging, high-content screening, mouse beta cells (AID 1628). It counts as functional. As to conditions: MIN6.
Experiment [3] in a line: MIN6 cell viability loss – mouse insulinoma, cytotoxicity control, dose response (AID 2122).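 Also: confirmatory high-throughput counterscreen run to flag cytotoxic compounds.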 In kind it is functional.
Experiment [4] is described as follows: viability of uninfected HEp-2 cells – cell-based, HTS, cytotoxicity control for RSV inhibitor project, dose response (AID 2410). In kind it is functional. As to conditions: human respiratory syncytial virus.
Experiment [5] is described as follows: Trypanosoma cruzi growth suppression in host cells – NIH3T3 host cells, beta-gal luminescence, confirmation (AID 2044).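 Also: intracellular parasites grown in NIH/3T3 mouse fibroblasts as host cells; luminescent beta-galactosidase reporter signal from transgenic T. cruzi replicating inside host cells; inhibitors lower the luminescence signal.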 It counts as functional, cell-based.
A short description of experiment [6]: NIH3T3 cell viability loss – ATP luminescence, mouse fibroblasts, counter-screen, dose response (AID 2010).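 Also: cells exposed to compound for about 90 hours before reading.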 In kind it is functional, cell-based.
The target of experiment [7] is Peroxisome proliferator-activated receptor gamma/Nuclear receptor coactivator 1 (Homo sapiens, UniProt P37231). Nature of the experiment: TR-FRET dose response biochemical High Throughput Screening assay for agonists of the steroid receptor coactivator 1 (SRC-1) recruitment by the peroxisome proliferator-activated receptor gamma (PPAR gamma): non-selective agonists. [Related pubchem assays (depositor defined):AID1300, AID1808, AID504735, AID631]. In kind it is protein assay. For orientation: In TR-FRET formats the signal depends on donor and acceptor labels being close together.
Sequence of Peroxisome proliferator-activated receptor gamma/Nuclear receptor coactivator 1 (P37231 whole entry): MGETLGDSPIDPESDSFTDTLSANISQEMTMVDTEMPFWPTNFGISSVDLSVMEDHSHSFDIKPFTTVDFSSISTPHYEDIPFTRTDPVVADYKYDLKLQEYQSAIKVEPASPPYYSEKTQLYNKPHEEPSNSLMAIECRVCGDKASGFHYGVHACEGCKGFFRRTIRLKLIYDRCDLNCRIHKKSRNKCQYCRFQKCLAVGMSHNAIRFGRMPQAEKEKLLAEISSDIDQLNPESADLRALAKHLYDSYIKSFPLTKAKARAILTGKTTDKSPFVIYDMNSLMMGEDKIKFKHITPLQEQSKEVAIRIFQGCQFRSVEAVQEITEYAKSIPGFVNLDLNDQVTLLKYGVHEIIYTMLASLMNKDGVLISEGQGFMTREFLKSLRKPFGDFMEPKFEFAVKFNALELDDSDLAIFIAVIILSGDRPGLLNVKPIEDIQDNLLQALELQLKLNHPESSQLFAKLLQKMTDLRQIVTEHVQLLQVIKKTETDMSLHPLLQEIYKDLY
Sequence of Peroxisome proliferator-activated receptor gamma/Nuclear receptor coactivator 1 (Q15788 whole entry, further chain): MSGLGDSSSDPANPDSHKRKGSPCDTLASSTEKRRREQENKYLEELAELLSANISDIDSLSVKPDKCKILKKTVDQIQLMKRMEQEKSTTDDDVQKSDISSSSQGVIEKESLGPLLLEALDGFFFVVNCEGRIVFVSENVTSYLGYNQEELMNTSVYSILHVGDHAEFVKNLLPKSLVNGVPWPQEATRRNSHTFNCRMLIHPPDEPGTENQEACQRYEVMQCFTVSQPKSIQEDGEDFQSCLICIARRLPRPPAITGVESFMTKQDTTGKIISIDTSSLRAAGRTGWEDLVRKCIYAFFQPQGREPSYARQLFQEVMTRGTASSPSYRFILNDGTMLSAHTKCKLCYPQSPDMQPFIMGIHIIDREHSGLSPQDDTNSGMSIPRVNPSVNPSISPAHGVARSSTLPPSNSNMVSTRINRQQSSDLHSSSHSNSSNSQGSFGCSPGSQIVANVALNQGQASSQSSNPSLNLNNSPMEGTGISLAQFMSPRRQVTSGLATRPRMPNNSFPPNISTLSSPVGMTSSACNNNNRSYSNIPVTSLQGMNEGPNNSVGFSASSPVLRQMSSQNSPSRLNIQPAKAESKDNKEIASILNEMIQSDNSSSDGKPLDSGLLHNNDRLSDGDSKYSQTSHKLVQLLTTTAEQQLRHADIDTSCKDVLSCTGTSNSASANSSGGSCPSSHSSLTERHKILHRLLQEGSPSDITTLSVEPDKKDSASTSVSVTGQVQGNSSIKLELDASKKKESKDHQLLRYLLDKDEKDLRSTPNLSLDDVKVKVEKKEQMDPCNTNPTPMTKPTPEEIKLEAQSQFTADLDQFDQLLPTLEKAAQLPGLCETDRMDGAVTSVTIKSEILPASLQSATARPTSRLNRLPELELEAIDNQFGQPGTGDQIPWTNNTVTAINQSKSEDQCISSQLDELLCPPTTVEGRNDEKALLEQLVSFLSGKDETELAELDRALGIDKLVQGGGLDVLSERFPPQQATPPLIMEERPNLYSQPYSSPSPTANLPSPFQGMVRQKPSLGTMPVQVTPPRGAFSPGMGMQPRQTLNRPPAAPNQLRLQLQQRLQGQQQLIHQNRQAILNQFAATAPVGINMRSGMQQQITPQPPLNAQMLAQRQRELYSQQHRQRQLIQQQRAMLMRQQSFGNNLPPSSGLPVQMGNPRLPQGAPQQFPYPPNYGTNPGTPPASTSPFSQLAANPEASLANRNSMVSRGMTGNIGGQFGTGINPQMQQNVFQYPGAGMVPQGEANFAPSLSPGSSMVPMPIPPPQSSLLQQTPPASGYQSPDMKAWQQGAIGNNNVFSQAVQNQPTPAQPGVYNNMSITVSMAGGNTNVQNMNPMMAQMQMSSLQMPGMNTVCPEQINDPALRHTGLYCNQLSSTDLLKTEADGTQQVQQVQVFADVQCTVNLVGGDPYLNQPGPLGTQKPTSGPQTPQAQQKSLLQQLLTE

Experiment [8] addresses Peroxisome proliferator-activated receptor gamma/Nuclear receptor coactivator 2 (Homo sapiens, UniProt P37231). Briefly: TR-FRET dose response biochemical High Throughput Screening assay for agonists of the steroid receptor coactivator 2 (SRC-2) recruitment by the peroxisome proliferator-activated receptor gamma (PPAR gamma): non-selective agonists. [Related pubchem assays: 1297, 1032 ]. In kind it is functional.

Experiment [9] addresses Peroxisome proliferator-activated receptor gamma/Nuclear receptor coactivator 3 (Homo sapiens, UniProt P37231). Briefly: TR-FRET dose response biochemical High Throughput Screening assay for agonists of the steroid receptor coactivator 3 (SRC-3) recruitment by the peroxisome proliferator-activated receptor gamma (PPAR gamma): non-selective agonists. [Related pubchem assays: 1301 (Confirmation screen.), 1048 (Primary screen.)]. In kind it is functional.

For a further experiment, the target named is T2, Protein RecA (Mycobacterium tuberculosis, UniProt P9WHJ3).
T2 sequence (P9WHJ3 whole entry): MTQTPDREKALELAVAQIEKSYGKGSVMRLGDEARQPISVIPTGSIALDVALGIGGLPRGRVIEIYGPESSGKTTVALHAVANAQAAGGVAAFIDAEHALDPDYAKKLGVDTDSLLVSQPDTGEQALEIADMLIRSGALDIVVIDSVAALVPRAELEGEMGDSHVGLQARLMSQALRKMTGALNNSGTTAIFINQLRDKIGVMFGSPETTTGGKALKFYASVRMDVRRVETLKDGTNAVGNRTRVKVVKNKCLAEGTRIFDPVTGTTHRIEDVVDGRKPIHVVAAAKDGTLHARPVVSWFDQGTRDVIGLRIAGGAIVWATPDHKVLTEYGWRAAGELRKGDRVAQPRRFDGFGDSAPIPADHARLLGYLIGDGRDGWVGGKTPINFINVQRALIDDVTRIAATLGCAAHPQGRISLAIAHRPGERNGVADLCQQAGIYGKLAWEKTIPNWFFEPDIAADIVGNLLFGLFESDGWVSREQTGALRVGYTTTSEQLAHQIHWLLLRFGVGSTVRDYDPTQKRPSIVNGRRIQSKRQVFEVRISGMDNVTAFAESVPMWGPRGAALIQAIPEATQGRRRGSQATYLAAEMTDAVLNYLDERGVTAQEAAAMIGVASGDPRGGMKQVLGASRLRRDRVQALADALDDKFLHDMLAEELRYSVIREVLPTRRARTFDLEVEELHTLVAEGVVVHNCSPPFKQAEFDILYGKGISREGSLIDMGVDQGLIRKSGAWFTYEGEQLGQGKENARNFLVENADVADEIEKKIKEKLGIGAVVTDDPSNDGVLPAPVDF
Briefly: Fluorescence Cell-Free Homogeneous Dose Retest to Identify Inhibitors of RecA-Intein Splicing Activity. [Related pubchem assays (depositor defined):AID2097, AID2223, AID489010, AID492950]. It counts as functional.

The target in experiment [10] is T3, Replicative DNA helicase DnaB (Mycobacterium tuberculosis, UniProt P9WMR3).
T3 sequence (P9WMR3 whole entry): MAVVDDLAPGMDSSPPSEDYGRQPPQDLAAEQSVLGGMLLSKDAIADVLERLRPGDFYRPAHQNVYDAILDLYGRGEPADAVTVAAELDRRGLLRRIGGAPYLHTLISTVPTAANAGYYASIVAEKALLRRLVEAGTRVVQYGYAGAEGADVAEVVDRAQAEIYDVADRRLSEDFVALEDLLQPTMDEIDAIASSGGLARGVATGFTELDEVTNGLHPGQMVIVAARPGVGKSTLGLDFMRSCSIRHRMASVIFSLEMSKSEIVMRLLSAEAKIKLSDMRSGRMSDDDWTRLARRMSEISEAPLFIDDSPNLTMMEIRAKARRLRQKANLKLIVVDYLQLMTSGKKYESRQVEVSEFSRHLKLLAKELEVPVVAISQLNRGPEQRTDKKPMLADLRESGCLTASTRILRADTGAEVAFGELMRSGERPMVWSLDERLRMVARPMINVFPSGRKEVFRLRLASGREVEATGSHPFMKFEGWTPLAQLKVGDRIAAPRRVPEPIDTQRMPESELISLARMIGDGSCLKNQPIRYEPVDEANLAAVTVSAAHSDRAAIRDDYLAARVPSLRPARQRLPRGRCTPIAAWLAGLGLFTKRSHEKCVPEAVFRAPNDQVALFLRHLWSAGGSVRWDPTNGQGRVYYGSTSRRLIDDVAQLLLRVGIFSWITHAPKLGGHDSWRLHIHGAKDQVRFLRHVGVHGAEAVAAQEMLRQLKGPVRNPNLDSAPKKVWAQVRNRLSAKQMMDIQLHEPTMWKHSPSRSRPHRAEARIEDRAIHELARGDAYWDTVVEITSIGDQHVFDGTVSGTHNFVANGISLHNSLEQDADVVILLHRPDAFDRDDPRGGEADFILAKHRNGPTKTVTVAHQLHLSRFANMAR
Nature of the experiment: DnaB intein splicing inhibitors, dose response, biochemical, cell-free fluorescence (AID 449749). In kind it is functional.

A further experiment relates to A-375. Nature of the experiment: MITF: Counter assay: A375 proliferation Measured in Cell-Based System Using Plate Reader - 2084-03_Inhibitor_Dose_DryPowder_Activity. [Related pubchem assays (depositor defined):AID488944]. It counts as functional. The following applies: Homo sapiens.
Experiment [11] in a line: DRD fibroblast viability loss – cell-based, non-viral oncogenic, luminescence, dose response (AID 1934). It counts as functional. As to conditions: Homo sapiens.
Experiment [12] deals with BJ. Briefly: BJ-TERT fibroblast viability loss – cell-based, RAS-independent, luminescence, dose response (AID 1933). In kind it is functional. The following applies: Homo sapiens.
Experiment [13] addresses T4, Microphthalmia-associated transcription factor (Homo sapiens, UniProt O75030).
T4 sequence (O75030 whole entry): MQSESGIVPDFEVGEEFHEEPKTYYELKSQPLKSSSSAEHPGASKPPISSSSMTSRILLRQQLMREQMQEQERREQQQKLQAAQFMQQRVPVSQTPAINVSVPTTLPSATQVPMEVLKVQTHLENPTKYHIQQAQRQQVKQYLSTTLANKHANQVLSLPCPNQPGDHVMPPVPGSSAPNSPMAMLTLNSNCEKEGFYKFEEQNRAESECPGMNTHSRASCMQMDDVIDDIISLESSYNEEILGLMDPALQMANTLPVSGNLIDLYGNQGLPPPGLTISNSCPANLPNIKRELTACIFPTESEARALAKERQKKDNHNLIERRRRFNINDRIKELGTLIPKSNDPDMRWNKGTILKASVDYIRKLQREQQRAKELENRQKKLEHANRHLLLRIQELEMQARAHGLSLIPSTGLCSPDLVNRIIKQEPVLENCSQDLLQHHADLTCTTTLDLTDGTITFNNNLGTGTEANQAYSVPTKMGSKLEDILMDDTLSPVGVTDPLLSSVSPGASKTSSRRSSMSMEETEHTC
Briefly: reducers of TRPM1 reporter luminescence, concentration series – cell-based, SK-MEL-5, cherry-picked, set 3, MITF inhibitor project, dose response (AID 493073).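 Also: SK-MEL-5 melanoma cells with luciferase driven by the MITF target TRPM1 promoter.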 In kind it is functional.

Experiment [14] deals with BJ. Nature of the experiment: BJ-TERT-LT-ST fibroblast viability loss – cell-based, RAS-independent, luminescence, dose response (AID 1935).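 Also: BJ fibroblasts immortalized with TERT plus LT and ST oncogenes.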 In kind it is functional. As to conditions: Homo sapiens.
Experiment [15] has as its system BJ. Briefly: cells. The following applies: Homo sapiens. It counts as functional, cell-based.
The target of experiment [16] is T5, High affinity choline transporter 1 (Homo sapiens, UniProt Q9GZV3).
T5 sequence (Q9GZV3 whole entry): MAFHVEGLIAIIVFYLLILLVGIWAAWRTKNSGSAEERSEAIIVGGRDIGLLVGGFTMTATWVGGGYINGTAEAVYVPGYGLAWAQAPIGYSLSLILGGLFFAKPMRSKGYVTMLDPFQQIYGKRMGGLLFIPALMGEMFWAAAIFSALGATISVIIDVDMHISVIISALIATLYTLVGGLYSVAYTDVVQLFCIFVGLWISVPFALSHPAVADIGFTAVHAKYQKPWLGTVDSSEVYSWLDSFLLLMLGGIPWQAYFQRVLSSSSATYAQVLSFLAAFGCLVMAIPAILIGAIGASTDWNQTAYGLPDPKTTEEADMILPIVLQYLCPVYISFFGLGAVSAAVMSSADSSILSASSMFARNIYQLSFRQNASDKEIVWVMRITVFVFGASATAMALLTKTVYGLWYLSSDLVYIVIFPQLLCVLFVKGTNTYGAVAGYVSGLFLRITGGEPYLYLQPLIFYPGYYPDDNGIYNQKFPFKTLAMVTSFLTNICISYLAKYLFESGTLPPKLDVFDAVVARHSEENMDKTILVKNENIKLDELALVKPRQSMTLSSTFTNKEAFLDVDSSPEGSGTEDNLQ
Briefly: human choline transporter blockers, potency – cell-based, 5-point CRC, membrane potential dye, dose response (AID 504840). In kind it is functional.

Sequence of Peroxisome proliferator-activated receptor gamma/Nuclear receptor coactivator 2 (P37231 whole entry): as the sequence (P37231 whole entry) above
Sequence of Peroxisome proliferator-activated receptor gamma/Nuclear receptor coactivator 2 (Q15596 whole entry, further chain): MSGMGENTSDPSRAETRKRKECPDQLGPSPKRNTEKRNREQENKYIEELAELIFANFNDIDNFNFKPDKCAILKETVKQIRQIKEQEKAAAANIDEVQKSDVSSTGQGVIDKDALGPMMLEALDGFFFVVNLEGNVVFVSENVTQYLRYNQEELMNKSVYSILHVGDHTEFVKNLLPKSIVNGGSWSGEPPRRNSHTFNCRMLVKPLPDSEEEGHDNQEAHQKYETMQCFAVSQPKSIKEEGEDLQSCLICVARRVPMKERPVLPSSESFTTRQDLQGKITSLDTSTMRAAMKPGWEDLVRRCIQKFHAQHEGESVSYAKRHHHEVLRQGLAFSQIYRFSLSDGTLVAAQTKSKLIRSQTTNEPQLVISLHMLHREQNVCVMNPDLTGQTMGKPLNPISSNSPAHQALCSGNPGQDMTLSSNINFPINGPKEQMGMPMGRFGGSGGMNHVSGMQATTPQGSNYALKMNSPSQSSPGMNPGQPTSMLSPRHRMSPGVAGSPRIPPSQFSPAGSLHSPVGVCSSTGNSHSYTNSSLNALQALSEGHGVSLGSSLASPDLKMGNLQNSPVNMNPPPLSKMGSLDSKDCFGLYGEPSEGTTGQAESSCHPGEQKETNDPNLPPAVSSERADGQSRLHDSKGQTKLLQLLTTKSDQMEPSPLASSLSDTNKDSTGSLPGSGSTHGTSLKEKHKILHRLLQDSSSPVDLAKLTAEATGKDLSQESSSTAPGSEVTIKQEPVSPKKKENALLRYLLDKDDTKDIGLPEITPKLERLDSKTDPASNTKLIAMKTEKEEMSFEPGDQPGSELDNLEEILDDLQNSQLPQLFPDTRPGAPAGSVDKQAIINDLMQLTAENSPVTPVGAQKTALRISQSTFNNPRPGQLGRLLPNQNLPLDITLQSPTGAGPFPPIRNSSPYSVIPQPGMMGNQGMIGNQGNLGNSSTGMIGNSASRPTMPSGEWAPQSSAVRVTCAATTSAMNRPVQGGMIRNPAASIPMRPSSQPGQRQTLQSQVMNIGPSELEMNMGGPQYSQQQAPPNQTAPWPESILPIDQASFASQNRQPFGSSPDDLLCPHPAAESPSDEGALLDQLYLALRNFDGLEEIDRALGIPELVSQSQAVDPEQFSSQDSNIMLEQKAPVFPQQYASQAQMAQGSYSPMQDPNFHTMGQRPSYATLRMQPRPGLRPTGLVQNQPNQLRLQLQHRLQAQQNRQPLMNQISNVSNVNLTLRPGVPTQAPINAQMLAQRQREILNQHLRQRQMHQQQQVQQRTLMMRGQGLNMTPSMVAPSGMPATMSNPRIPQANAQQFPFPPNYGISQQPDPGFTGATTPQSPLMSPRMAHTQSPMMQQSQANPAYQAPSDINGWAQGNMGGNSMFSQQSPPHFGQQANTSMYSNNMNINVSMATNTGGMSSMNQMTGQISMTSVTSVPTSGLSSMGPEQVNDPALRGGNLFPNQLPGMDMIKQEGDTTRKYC

By IC50 is commonly meant the midpoint of a concentration-inhibition curve. Regarding `COC(=O)c1cc(NC(=O)Cc2cccs2)cc(C(=O)OC)c1`, in [1], the IC50 is 3.84 µM (active).
As for `Cc1ccc(-c2noc(CCC(=O)NCCCN3CCN(c4ccc(F)cc4)CC3)n2)cc1`, the figures for the IC50 in [2] and in experiment [3] were 3.28 µM (active) and 3.21 µM (active), respectively.
Regarding `O=C(CNC(=O)c1cccc(OC(F)F)c1)OCc1cc(=O)n2cc(Br)ccc2n1`, the half-maximal inhibitory concentration (IC50) in experiment [1] is 7.09 µM (active).
As for `N=c1ccn(Cc2cccc(Cl)c2)cc1`, the IC50 is 3.15 µM (active) in experiment [2] and 3.41 µM (active) in experiment [3].
The matching figures for `COc1cc(-c2nn3c(-c4ccccc4)nnc3s2)cc(OC)c1OC`: 3.22 µM (active) and > 16 µM (inactive).
Broadly, the CC50 is the concentration giving 50% cytotoxicity. One may read the EC50 as the concentration giving half of the maximal effect. As for `O=C(NCc1cn(-c2ccccc2)nc1-c1ccc(F)cc1)c1cccc([N+](=O)[O-])c1`, the 50% inhibitory concentration (IC50) in [2] was 2.91 µM (active); in [3], 4.31 µM (active). For the same compound, the cytotoxic concentration (CC50) in experiment [4] is 28.1 µM (active). Moreover, the EC50 was 0.805 µM (active) in experiment [5] and > 60 µM (not active) in experiment [6].
In general, AC50 refers to the concentration at which the activity in the assay is half-maximal. Regarding `O=C(CSc1c2c(nc3cc(Cl)ccc13)CCCC2)NCc1ccco1`, the EC50 in [7] was > 79.4 µM (inactive); in experiment [8], > 79.4 µM (not active); in experiment [9] it was > 79.4 µM (not active); at Protein RecA, 7.14 µM (active). Also, the concentration at half-maximal activity (AC50) in experiment [10] is 27.9 µM (active).
For `COc1ccc(N(Cc2cc(O)nc3ccccc23)C(=O)CCl)cc1`, the AC50 in the experiment on A-375 was 27.1 µM (active); in [13] it was 10.9 µM (active); in experiment [10], 10.3 µM (active). Also, the half-maximal effective concentration (EC50) was 4.96 µM (inconclusive) in experiment [11]; 1.95 µM (active) in the experiment on BJ [12]; 1.59 µM (active) at Protein RecA; 4.68 µM (active) in the experiment with BJ [14]; 5.45 µM (inconclusive) with BJ [15].
In the case of `CC1(C)CC2CC(C)(CN2c2ncnc3ccccc23)C1` (stereo not given), the IC50 in experiment [2] is 1.7 µM (active); in experiment [3], 1.16 µM (active); in experiment [16], 6.74 µM (active).
`CCOC(=O)c1cc2c(=O)n3cccc(C)c3nc2n(Cc2ccco2)/c1=N/C(=O)c1cccnc1`: the concentration for half-maximal inhibition (IC50) in experiment [1] was 18.8 µM (active).
